The values below come from US20240246964A1 (Arbutus Biopharma Corporation, priority 2021, published 2024).

pEC50, pIC50: −log10 of the molar value.

Test [1] has as its target human PD-L1 (Homo sapiens (Human), UniProt Q9NZQ7). The test is described as follows: T cell activation luciferase reporter cell culture system (T Cell Activation Assay). The format is cell-based. The conditions noted are these: luciferase reporter assay; PD-L1 aAPC/CHO-K1 cells with PD-1 effector Jurkat T cells. On the technique in general: In a reporter assay the amount or activity of a reporter protein is the signal.

The target in test [2] is PD-L1 His protein / PD-1 Fc protein (Homo sapiens (Human), UniProt Q9NZQ7). The test is described as follows: HTRF Assay (PD-1/PD-L1 interaction). The conditions noted are these: PD-L1 His 6 nM, PD-1 Fc 6 nM. The format is binding. For orientation: In TR-FRET formats the signal depends on donor and acceptor labels being close together.
Chain of PD-L1 His protein / PD-1 Fc protein (Q9NZQ7 19-238): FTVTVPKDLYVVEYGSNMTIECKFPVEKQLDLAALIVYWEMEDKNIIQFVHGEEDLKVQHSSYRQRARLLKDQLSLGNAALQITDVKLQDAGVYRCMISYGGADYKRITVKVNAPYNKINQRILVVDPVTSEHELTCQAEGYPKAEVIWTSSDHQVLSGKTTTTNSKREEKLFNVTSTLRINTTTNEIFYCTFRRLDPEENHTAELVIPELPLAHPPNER

Chain of human PD-L1 (Q9NZQ7 19-290): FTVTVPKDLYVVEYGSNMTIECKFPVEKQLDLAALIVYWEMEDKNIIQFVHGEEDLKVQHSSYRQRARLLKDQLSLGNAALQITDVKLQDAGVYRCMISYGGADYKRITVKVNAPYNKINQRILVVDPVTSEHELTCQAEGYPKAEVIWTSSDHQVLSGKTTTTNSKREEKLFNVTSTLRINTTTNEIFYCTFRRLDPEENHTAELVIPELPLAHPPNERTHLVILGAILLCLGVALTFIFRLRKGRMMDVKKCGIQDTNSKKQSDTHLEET

On to `COc1nc(-c2cccc(-c3ccnc(-c4ccc(CNC5CCN(C(C)=O)CC5)c(F)c4)c3Cl)c2Cl)ccc1CNC1CCN(C(C)=O)CC1` [Example 282, 1-(4-(((6-(3-(2-(4-(((1-Acetylpiperidin-4-yl)amino)methyl)-3-fluorophenyl)-3-chloropyridin-4-yl)-2-chlorophenyl)-2-methoxypyridin-3-yl)methyl)amino)piperidin-1-yl)ethan-1-one], for which the pEC50 (as a rule, −log10 of the EC50, conventionally taken in molar units) in test [1] was 7.07. For the same compound, the negative logarithm of the IC50 (pIC50) (usually the negative decadic logarithm of the IC50, by convention in mol/L) in test [2] is 8.81.
For the compound `CNCc1ccc(-c2nccc(-c3cccc(-c4ccc(CNC)c(OC)n4)c3Cl)c2Cl)cc1F` [Example 283, 1-(6-(2-Chloro-3-(3-chloro-2-(3-fluoro-4-((methylamino)methyl)phenyl)pyridin-4-yl)phenyl)-2-methoxypyridin-3-yl)-N-methylmethanamine], the pEC50 in test [1] is 7.44. The compound also showed a negative logarithm of the IC50 (pIC50) in test [2] of 8.40.
In the case of `COc1nc(-c2cccc(-c3ccnc(-c4ccc(CN5CC6(CNC(=O)C6)C5)c(F)c4)c3Cl)c2Cl)ccc1CN1CC2(CNC(=O)C2)C1` [Example 284, 2-((6-(2-Chloro-3-(3-chloro-2-(3-fluoro-4-((7-oxo-2,6-diazaspiro[3.4]octan-2-yl)methyl)phenyl)pyridin-4-yl)phenyl)-2-methoxypyridin-3-yl)methyl)-2,6-diazaspiro[3.4]octan-7-one], the pEC50 in test [1] was 7.20. Also, in test [2], the pIC50 was 8.55.
`COc1cc(-c2nccc(-c3cccc(-c4ccc(CNC5CCN(C(C)=O)CC5)c(OC)n4)c3Cl)c2Cl)cc(F)c1CNC1CCN(C(C)=O)CC1` [Example 285, 1-(4-(((6-(3-(2-(4-(((1-Acetylpiperidin-4-yl)amino)methyl)-3-fluoro-5-methoxyphenyl)-3-chloropyridin-4-yl)-2-chlorophenyl)-2-methoxypyridin-3-yl)methyl)amino)piperidin-1-yl)ethan-1-one] gave a negative-log EC50 (pEC50) in test [1] of 7.85. This compound also had a negative-log IC50 (pIC50) in test [2] of 9.15.
Compound `CNCc1ccc(-c2cccc(-c3ccnc(-c4cc(F)c(CNC)c(OC)c4)c3Cl)c2Cl)nc1OC` [Example 286, 1-(6-(2-Chloro-3-(3-chloro-2-(3-fluoro-5-methoxy-4-((methylamino)methyl)phenyl)pyridin-4-yl)phenyl)-2-methoxypyridin-3-yl)-N-methylmethanamine] gave a negative logarithm of the EC50 (pEC50) in test [1] of 7.81. In test [2], this compound showed a pIC50 of 8.29.
The matching figures for `COc1cc(-c2nccc(-c3cccc(-c4ccc(CN5CC6(CNC(=O)C6)C5)c(OC)n4)c3Cl)c2Cl)cc(F)c1CN1CC2(CNC(=O)C2)C1` [Example 287, 2-((6-(2-Chloro-3-(3-chloro-2-(3-fluoro-5-methoxy-4-((7-oxo-2,6-diazaspiro[3.4]octan-2-yl)methyl)phenyl)pyridin-4-yl)phenyl)-2-methoxypyridin-3-yl)methyl)-2,6-diazaspiro[3.4]octan-7-one]: 7.78 and 8.33.
The matching figures for `COc1nc(-c2cccc(-c3ccnc(-c4ccc5c(CN6CC7(CNC(=O)C7)C6)nn(C)c5c4)c3Cl)c2Cl)ccc1CNC[C@@H]1CCC(=O)N1` [Example 288, (S)-2-((6-(3-Chloro-4-(2-chloro-3-(6-methoxy-5-((((5-oxopyrrolidin-2-yl)methyl)amino)methyl)pyridin-2-yl)phenyl)pyridin-2-yl)-1-methyl-1H-indazol-3-yl)methyl)-2,6-diazaspiro[3.4]octan-7-one]: 7.28 and 8.63.
The matching figures for `COc1nc(-c2cccc(-c3ccnc(-c4cc(Cl)c5c(c4)CCN(CC4CCN(C(C)=O)CC4)C5)c3Cl)c2Cl)ccc1CNC[C@@H]1CCC(=O)N1` [Example 289, (S)-5-((((6-(3-(2-(2-((1-Acetylpiperidin-4-yl)methyl)-8-chloro-1,2,3,4-tetrahydroisoquinolin-6-yl)-3-chloropyridin-4-yl)-2-chlorophenyl)-2-methoxypyridin-3-yl)methyl)amino)methyl)pyrrolidin-2-one]: 7.06 and 8.53.
`COc1cc(-c2nccc(-c3cccc(-c4cc5c(cn4)C(=O)N(CCNC[C@@H]4CCC(=O)N4)C5)c3Cl)c2Cl)ccc1CNC[C@@H]1CCC(=O)N1` [Example 290, 6-(2-Chloro-3-(3-chloro-2-(3-methoxy-4-(((((S)-5-oxopyrrolidin-2-yl)methyl)amino)methyl)phenyl)pyridin-4-yl)phenyl)-2-(2-((((S)-5-oxopyrrolidin-2-yl)methyl)amino)ethyl)-1,2-dihydro-3H-pyrrolo[3,4-c]pyridin-3-one] showed a negative-log EC50 (pEC50) in test [1] of 6.26. This compound also showed a negative-log IC50 (pIC50) in test [2] of 8.52.
Regarding `COc1cc(-c2nccc(-c3cccc(-c4cn5cc(CNC[C@@H]6CCC(=O)N6)nc5cn4)c3Cl)c2Cl)ccc1CNC[C@@H]1CCC(=O)N1` [Example 291, (S)-5-((((6-(2-Chloro-3-(3-chloro-2-(3-methoxy-4-(((((S)-5-oxopyrrolidin-2-yl)methyl)amino)methyl)phenyl)pyridin-4-yl)phenyl)imidazo[1,2-a]pyrazin-2-yl)methyl)amino)methyl)pyrrolidin-2-one], in test [1], the pEC50 is 6.43. In addition, the pIC50 in test [2] is 8.85.
For the compound `COc1cc(-c2nccc(-c3cccc4c3CC[C@@H]4Oc3nc(OC)c(CN4CC5(CNC(=O)C5)C4)cc3C(F)(F)F)c2Cl)ccc1CN1CC2(CNC(=O)C2)C1` [Example 292, (S)-2-(4-(3-chloro-4-(1-((6-methoxy-5-((7-oxo-2,6-diazaspiro[3.4]octan-2-yl)methyl)-3-(trifluoromethyl)pyridin-2-yl)oxy)-2,3-dihydro-1H-inden-4-yl)pyridin-2-yl)-2-methoxybenzyl)-2,6-diazaspiro[3.4]octan-7-one], in test [1], the negative-log EC50 (pEC50) was 6.41. Besides, the pIC50 in test [2] is 8.36.
`COc1cc(-c2nccc(-c3cccc(-c4ccc(CNC[C@H](C)O)c(OC)n4)c3Cl)c2Cl)cc2c1CN(CCC(=O)O)CC2` [Example 293, (S)-3-(6-(3-Chloro-4-(2-chloro-3-(5-(((2-hydroxypropyl)amino)methyl)-6-methoxypyridin-2-yl)phenyl)pyridin-2-yl)-8-methoxy-3,4-dihydroisoquinolin-2(1H)-yl)propanoic acid] had a pEC50 in test [1] of 7.22. The same compound gave a negative logarithm of the IC50 (pIC50) in test [2] of 9.57.
Turning to `COc1cc(-c2nccc(-c3cccc(-c4ccc(CN5CC6(CNC(=O)C6)C5)c(OC)n4)c3Cl)c2Cl)cc2c1CN(CCC(=O)O)CC2` [Example 294, 3-(6-(3-Chloro-4-(2-chloro-3-(6-methoxy-5-((7-oxo-2,6-diazaspiro[3.4]octan-2-yl)methyl)pyridin-2-yl)phenyl)pyridin-2-yl)-8-methoxy-3,4-dihydroisoquinolin-2(1H)-yl)propanoic acid], the pEC50 in test [1] was 7.13. This compound showed a pIC50 in test [2] of 9.62.
Consider `COC(=O)C1(CN2CCc3cc(-c4nccc(-c5cccc(-c6ccc(CN7CC8(CNC(=O)C8)C7)c(OC)n6)c5Cl)c4Cl)cc(OC)c3C2)CC1` [Example 295, Methyl 1-((6-(3-chloro-4-(2-chloro-3-(6-methoxy-5-((7-oxo-2,6-diazaspiro [3.4]octan-2-yl)methyl)pyridin-2-yl)phenyl)pyridin-2-yl)-8-methoxy-3,4-dihydroisoquinolin-2(1H)-yl)methyl)cyclopropane-1-carboxylate], for which the pEC50 in test [1] is 6.63. The compound further showed a pIC50 in test [2] of 8.68.
In the case of `COc1cc(-c2nccc(-c3cccc(-c4ccc(CN5CC6(CNC(=O)C6)C5)c(OC)n4)c3Cl)c2Cl)cc2c1CN(CC(O)CF)CC2` (stereo not shown) [Example 296, 2-((6-(2-Chloro-3-(3-chloro-2-(2-(3-fluoro-2-hydroxypropyl)-8-methoxy-1,2,3,4-tetrahydroisoquinolin-6-yl)pyridin-4-yl)phenyl)-2-methoxypyridin-3-yl)methyl)-2,6-diazaspiro[3.4]octan-7-one], the negative logarithm of the EC50 (pEC50) in test [1] is 7.30. For the same compound, in test [2], the negative-log IC50 (pIC50) was 8.48.
The matching figures for `COc1cc(-c2nccc(-c3cccc(-c4ccc(CN5CC6(CNC(=O)C6)C5)c(OC)n4)c3Cl)c2Cl)cc2c1CN(CC1(C(=O)O)CC1)CC2` [Example 297, 1-((6-(3-Chloro-4-(2-chloro-3-(6-methoxy-5-((7-oxo-2,6-diazaspiro[3.4]octan-2-yl)methyl)pyridin-2-yl)phenyl)pyridin-2-yl)-8-methoxy-3,4-dihydroisoquinolin-2(1H)-yl)methyl)cyclopropane-1-carboxylic acid]: 6.37 and 9.54.
The matching figures for `COc1cc(-c2nccc(-c3cccc(-c4ccc(CNC5CCOCC5)c(OC)n4)c3Cl)c2Cl)ccc1CNC1CCOCC1` [Example 298, N-((6-(2-chloro-3-(3-chloro-2-(3-methoxy-4-(((tetrahydro-2H-pyran-4-yl)amino)methyl)phenyl)pyridin-4-yl)phenyl)-2-methoxypyridin-3-yl)methyl)tetrahydro-2H-pyran-4-amine]: 7.84 and 8.75.
The matching figures for `COc1cc(-c2nccc(-c3cccc(-c4ccc(CNC5CCS(=O)(=O)CC5)c(OC)n4)c3Cl)c2Cl)ccc1CNC1CCS(=O)(=O)CC1` [Example 299, 4-(((6-(2-Chloro-3-(3-chloro-2-(4-(((1,1-dioxidotetrahydro-2H-thiopyran-4-yl)amino)methyl)-3-methoxyphenyl)pyridin-4-yl)phenyl)-2-methoxypyridin-3-yl)methyl)amino)tetrahydro-2H-thiopyran 1,1-dioxide]: 7.64 and 9.10.
Regarding `COc1cc(-c2nccc(-c3cccc(-c4ccc(CNC5CN(C(C)=O)C5)c(OC)n4)c3Cl)c2Cl)ccc1CNC1CN(C(C)=O)C1` [Example 300, 1-(3-(((6-(3-(2-(4-(((1-Acetylazetidin-3-yl)amino)methyl)-3-methoxyphenyl)-3-chloropyridin-4-yl)-2-chlorophenyl)-2-methoxypyridin-3-yl)methyl)amino)azetidin-1-yl)ethan-1-one], in test [1], the pEC50 is 6.55. This compound showed a negative-log IC50 (pIC50) in test [2] of 9.06.
The matching figures for `COc1cc(-c2nccc(-c3cccc(-c4ccc(CNC[C@H](C)O)c(OC)n4)c3Cl)c2Cl)ccc1CNC[C@H](C)O` [Example 301, (S)-1-(((6-(2-Chloro-3-(3-chloro-2-(4-((((S)-2-hydroxypropyl)amino)methyl)-3-methoxyphenyl)pyridin-4-yl)phenyl)-2-methoxypyridin-3-yl)methyl)amino)propan-2-ol]: 7.71 and 9.24.
